Experimental data as given in US6410735B1, “1-(4-arylpiperazin-1-y1)-ω-[N-(α,ω-dicarboximido)]-alkanes useful as uro-selective α1-adrenoceptor blockers” (Ranbaxy Laboratories Limited, priority 1997, dated 2002).

Assays:
[1] = system: anaesthetized dogs (blood pressure); test: In vivo selectivity study, phenylephrine response on blood pressure in anaesthetized dogs; design: species or system dog; details: Canis lupus familiaris, iv 0.01-0.3 mg/kg, against phenylephrine, read-out: pseudo pKB Blood Pressure (converted)
Method: Male mongrel dogs (12-20 Kg) were anaesthetized with pentobarbitone sodium (35 mg/kg, iv). Trachea was intubated for artificial respiration. Femoral artery and femoral vein were cannulated for recording blood pressure and for administration of drug solutions, respectively. Blood pressure was recorded on a polygraph through a pressure transducer. A paramedian incision was made lateral to the penis and the bladder was exposed. Urine was drained through a cannula put directly into the bladder and it was guided into the urethra gently and was placed at the prostatic urethra. Balloon was inflated with 2 cc air and its placement was confirmed by digital pressure. Intraurethral pressure was recorded on the polygraph through a pressure transducer. Graded dose response relationship of phenylephrine (1-16 μg/kg, iv) was obtained on prostatic pressure and blood pressure, prior to administration of the compounds of the present invention. Compounds 2, 9, and 13 (at dosages of 0.01, 0.03, 0.1, and 0.3 mg/kg) were administered intravenously 10 min before obtaining phenylephrine dose response curves. Results were analyzed and pseudo PKB values were calculated as described in Kenny et al (1996).

[2] = target: T1, α1B-adrenoceptor (spleen) (Rattus norvegicus, UniProt P15823); test: In vitro functional assay, phenylephrine-induced contraction of isolated spleen; format: cell-based; details: rat spleen, phenylephrine; read-out: In Vitro Functional Assay (pKB) α1B (converted)
T1 construct: Aorta, prostate and spleen tissues were isolated from urethane anaesthetized (1.5 gm/kg) male wistar rats; from tissue; host or cells: isolated spleen of male Wistar rats
T1 sequence (P15823 1-515): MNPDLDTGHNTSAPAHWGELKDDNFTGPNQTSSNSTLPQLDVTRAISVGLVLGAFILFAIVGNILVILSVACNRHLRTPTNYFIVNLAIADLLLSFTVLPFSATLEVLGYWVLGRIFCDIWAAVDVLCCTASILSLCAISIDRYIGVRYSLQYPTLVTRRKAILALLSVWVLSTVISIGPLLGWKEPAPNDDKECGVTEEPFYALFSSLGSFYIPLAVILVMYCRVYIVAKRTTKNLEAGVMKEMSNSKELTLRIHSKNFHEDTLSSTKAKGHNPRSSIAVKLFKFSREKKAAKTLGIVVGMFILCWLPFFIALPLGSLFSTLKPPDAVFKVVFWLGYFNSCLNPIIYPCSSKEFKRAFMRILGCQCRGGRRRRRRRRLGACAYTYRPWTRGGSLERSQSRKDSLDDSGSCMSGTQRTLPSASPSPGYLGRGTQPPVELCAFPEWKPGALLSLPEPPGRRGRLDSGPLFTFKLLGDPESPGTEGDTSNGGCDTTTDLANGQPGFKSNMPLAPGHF
Excerpt: (§1) In order to study selectivity of action of the present compounds towards different α-adrenoceptor subtypes, the ability of these compounds to antagonize α1-adrenoceptor agonist induced contractile response of aorta (α1D), prostate (α1A) and spleen (α1B) was studied. Aorta, prostate and spleen tissues were isolated from urethane anaesthetized (1.5 gm/kg) male wistar rats. Isolated tissues were mounted in organ bath containing Krebs Henseleit buffer of the following composition (mM): NaCl 118; KCl 4.7; CaCl2 2.5; MgSO4·H2O 1.2; NaHCO3 25; KH2PO4 1.2; glucose 11.5. Buffer was maintained at 37° C. and aerated with a mixture of 95% O2 and 5% CO2. A resting tension of 2 g (aorta) or 1 g (spleen and prostate) was applied to tissues. Contractile response was monitored using a force displacement transducer and recorded on chart recorders. Tissues were allowed to equilibrate for 2 hours. At the end of equilibration period, concentration response curves to norepinephrine (aorta) and phenylephrine (spleen and prostate) were obtained in the absence and presence of the tested compound (at concentrations of 0.1, 1 and 10 μM). Antagonist affinity was calculated and expressed as PKB values in Table 1.

α1A-adrenoceptor = target: T2, α1A-adrenoceptor (Rattus norvegicus, UniProt P43140); test: Receptor binding assay, [3H]prazosin, rat submaxillary membranes; details: rat submaxillary membranes, 0.5 nM [3H]prazosin; read-out: RBA (Ki nM) α1A
T2 construct: from tissue; host or cells: rat submaxillary gland membranes
T2 sequence (P43140 1-466): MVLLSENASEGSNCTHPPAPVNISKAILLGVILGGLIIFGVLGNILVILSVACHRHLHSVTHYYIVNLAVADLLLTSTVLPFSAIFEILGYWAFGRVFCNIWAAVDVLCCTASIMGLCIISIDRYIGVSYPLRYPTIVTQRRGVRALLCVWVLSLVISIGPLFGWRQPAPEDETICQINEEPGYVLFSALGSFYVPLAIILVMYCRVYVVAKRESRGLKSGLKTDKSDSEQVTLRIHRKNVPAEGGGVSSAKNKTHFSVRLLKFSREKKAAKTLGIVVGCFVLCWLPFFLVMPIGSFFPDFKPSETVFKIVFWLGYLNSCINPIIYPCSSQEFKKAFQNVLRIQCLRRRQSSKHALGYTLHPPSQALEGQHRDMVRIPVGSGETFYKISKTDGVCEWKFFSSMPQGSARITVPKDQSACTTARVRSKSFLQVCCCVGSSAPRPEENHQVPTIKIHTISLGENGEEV
Method: Receptor binding assays, (RBA's) were performed for native α1-adrenoceptors. Rat submaxillary and rat liver membrane preparations were used to assess the affinity for α1A and α1B subtypes, respectively. Aliquots of membrane protein ([…]) were incubated in a final volume of […] assay buffer (50 mM Tris, 0.5 mM EDTA at pH 7.4) with 0.5 nM [^3H] prazosin for 60 mins at 28 ° C. Reaction was stopped by rapid filtration on Millipore filters. Filters were dried and bound radioactivity counted. Non-specific binding was determined in the presence of 0.3 mM prazosin.

α1D-adrenoceptor (aorta) = target: T3, α1D-adrenoceptor (aorta) (Rattus norvegicus, UniProt P23944); test: In vitro functional assay, norepinephrine-induced contraction of isolated aorta; format: cell-based; details: rat aorta, norepinephrine; read-out: In Vitro Functional Assay (pKB) α1D (converted)
T3 construct: Aorta, prostate and spleen tissues were isolated from urethane anaesthetized (1.5 gm/kg) male wistar rats; from tissue; host or cells: isolated aorta of male Wistar rats
T3 sequence (P23944 1-561): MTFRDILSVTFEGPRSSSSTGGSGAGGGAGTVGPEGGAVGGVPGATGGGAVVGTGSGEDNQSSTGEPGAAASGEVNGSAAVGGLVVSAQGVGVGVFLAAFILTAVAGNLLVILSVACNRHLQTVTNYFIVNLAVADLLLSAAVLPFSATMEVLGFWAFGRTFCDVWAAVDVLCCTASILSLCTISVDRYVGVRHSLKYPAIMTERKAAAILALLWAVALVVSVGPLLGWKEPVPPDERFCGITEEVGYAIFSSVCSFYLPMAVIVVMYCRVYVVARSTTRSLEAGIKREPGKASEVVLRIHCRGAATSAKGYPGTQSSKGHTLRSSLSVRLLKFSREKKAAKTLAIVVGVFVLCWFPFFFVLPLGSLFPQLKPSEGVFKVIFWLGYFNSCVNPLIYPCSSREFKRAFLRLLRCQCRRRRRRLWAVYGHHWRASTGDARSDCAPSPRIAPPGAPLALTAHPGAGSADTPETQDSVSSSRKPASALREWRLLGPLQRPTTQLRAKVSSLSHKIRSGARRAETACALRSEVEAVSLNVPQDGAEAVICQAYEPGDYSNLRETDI
Excerpt: as §1

Structure (SMILES) | Kb [1] [nM] | Kb [2] [nM] | Ki (α1A-adrenoceptor) [nM] | Kb (α1D-adrenoceptor (aorta)) [nM]
COc1ccccc1N1CCN(CCCN2C(=O)CCC2=O)CC1 [Compound 2, 1-[4-(2-Methoxyphenyl)piperazin-1-yl]3-(2,5-dioxopyrrolidin-1-yl)propane] | 126 | 25.1 | 19 | 50.1
COc1ccccc1N1CCN(CCCCN2C(=O)CCC2=O)CC1 [Compound 9, 1-[4-(2-Methoxyphenyl)piperazin-1-yl]-4-(2,5-dioxopyrrolidin-1-yl)butane] | 39.8 | 10 | 1 | 5.01
COc1ccccc1N1CCN(CCCN2C(=O)CCCC2=O)CC1 [Compound 13, 1-[4-(2-Methoxyphenyl)piperazin-1-yl]-3-(2,6-dioxopiperidin-1-yl)propane] | 79.4 | 10 | 3 | 12.6
